Measurements as given in US7074758B2, “Two gonadotropin releasing hormones and a method to isolate the same” (Council of Scientific and Industrial Research, priority 2002, dated 2006).
“Also recorded” adds a separate entry of the source. Read-outs that look alike come from different tables or passages of the source.

Tests used:
murrel pituitary cells = assay: GtH release from murrel pituitary cell incubations, GtH measured by RIA; type: cell-based, Indian Murrel; conditions: for GtH released: Table 4, 2 μg GnRH fractions, mean ± SEM of five experiments, species of cells not given; for increase gonadotropin release: fold increase of gonadotropin release
Protocol: Meanwhile Jamaluddin et al, (Gen comp Endocrinology May 1989; 74(2): 190–8) of applicants laboratory developed a very dependable GnRH bioassay. Basic principle of this bioassay is to get the release of GTH from murrel primary pituitary cell culture and determine the amount of GTH released by GTH-RIA. […]
These three acetone fractions were extracted with petroleum ether (40–60° C.) to remove acetone, lipids and other hydrophobic substances. The final precipitates were centrifuged at 8,000 g for 15 min at 4° C. and the residues were stored at −80° C. until further use.

[1] = system: Cyprinus carpio pituitary cells; assay: gonadotropin release from carp pituitaries in response to murrel GnRH I and II; type: cell-based; conditions: 2 μg GnRH fractions
[2] = system: Cirrhinus mrigala pituitary cells; assay: as above; type: cell-based; conditions: 2 μg GnRH fractions
Text: (§1) Meanwhile Jamaluddin et al, (Gen comp Endocrinology May 1989; 74(2): 190–8) of applicants laboratory developed a very dependable GnRH bioassay. Basic principle of this bioassay is to get the release of GTH from murrel primary pituitary cell culture and determine the amount of GTH released by GTH-RIA. […] Moreover, these two GnRHs act almost equally in different species of carp indicating no species barrier (As shown below in Table 3).

[3] = system: Catla catla pituitary cells; assay: as above; type: cell-based; conditions: 2 μg GnRH fractions
Text: as §1

Row | Substance | GtH released (murrel pituitary cells) | GnRH activity on the basis of GTH release from in vitro pituitary cell culture (murrel pituitary cells) | increase gonadotropin release (murrel pituitary cells) | GnRH activity on the basis of GTH release from in vitro pituitary cell culture (murrel pituitary cells; listed as SRP H) | GtH II released [1] | GtH II released [2] | GtH II released [3] | GnRH activity on the basis of GTH release from in vitro pituitary cell culture (murrel pituitary cells; listed as QRP H)
1 | mammalian GnRH: mammalian gonadotropin releasing hormone decapeptide, comparator (QHWSYGLRPG; Gonadoliberin-1; UniProt P01148 24-33, looked up) [reference compound] | 49.9 ± 2.02 ng/6 × 10^4 cells | – | – | – | – | – | – | –
2 | QHWSWGILPG (channa punctatus) [muGnRH II] | 79.2 ± 3.12 ng/6 × 10^4 cells | more active gonadotropin releasing hormone than muGnRH I; also recorded: highly active; also recorded: slightly more active | about 35 times | GnRH was found to be located | 81.7 ± 3.12 ng/6 × 10^4 cells | 80.1 ± 2.61 ng/6 × 10^4 cells | 82.6 ± 3.02 ng/6 × 10^4 cells | –
3 | QHWSAWRLPG (channa punctatus) [muGnRH I] | 73.3 ± 2.2 ng/6 × 10^4 cells | highly active | about 30 times | – | 73.8 ± 2.51 ng/6 × 10^4 cells | 72.0 ± 2.13 ng/6 × 10^4 cells | 74.5 ± 2.32 ng/6 × 10^4 cells | GnRH was found to be located
4 | des-Gly^10,[D-Ala^6]-LHRH [GnRH superactive analogue, reference compound] | 68.0 ± 2.32 ng/6 × 10^4 cells | – | – | – | – | – | – | –
